“And” between values parts separate entries of the source, which are not always exact repeats. Equal values may be shown once. Read-outs that look alike come from different tables or passages of the source.

One may read the IC50 as the concentration that gives 50% inhibition.

Data set [1] relates to HepG2. Also noted: method as in PMID 33721808, PMID 34023640. Particulars: lead compounds of previous work ref 63, 64, read-out: Cytotoxicity on cancer cells IC50, HepG2; cited from earlier work.
Data set [2] concerns MCF-7. Also noted: method as in PMID 33721808, PMID 34023640. Particulars: lead compounds of previous work ref 63, 64, read-out: Cytotoxicity on cancer cells IC50, MCF-7; cited from earlier work.
For data set [3], the target named is T1, human VEGFR-2 (Homo sapiens, UniProt P35968).
T1 construct: endogenous in cells; host or cells: HepG2
T1 sequence (P35968 20-1356): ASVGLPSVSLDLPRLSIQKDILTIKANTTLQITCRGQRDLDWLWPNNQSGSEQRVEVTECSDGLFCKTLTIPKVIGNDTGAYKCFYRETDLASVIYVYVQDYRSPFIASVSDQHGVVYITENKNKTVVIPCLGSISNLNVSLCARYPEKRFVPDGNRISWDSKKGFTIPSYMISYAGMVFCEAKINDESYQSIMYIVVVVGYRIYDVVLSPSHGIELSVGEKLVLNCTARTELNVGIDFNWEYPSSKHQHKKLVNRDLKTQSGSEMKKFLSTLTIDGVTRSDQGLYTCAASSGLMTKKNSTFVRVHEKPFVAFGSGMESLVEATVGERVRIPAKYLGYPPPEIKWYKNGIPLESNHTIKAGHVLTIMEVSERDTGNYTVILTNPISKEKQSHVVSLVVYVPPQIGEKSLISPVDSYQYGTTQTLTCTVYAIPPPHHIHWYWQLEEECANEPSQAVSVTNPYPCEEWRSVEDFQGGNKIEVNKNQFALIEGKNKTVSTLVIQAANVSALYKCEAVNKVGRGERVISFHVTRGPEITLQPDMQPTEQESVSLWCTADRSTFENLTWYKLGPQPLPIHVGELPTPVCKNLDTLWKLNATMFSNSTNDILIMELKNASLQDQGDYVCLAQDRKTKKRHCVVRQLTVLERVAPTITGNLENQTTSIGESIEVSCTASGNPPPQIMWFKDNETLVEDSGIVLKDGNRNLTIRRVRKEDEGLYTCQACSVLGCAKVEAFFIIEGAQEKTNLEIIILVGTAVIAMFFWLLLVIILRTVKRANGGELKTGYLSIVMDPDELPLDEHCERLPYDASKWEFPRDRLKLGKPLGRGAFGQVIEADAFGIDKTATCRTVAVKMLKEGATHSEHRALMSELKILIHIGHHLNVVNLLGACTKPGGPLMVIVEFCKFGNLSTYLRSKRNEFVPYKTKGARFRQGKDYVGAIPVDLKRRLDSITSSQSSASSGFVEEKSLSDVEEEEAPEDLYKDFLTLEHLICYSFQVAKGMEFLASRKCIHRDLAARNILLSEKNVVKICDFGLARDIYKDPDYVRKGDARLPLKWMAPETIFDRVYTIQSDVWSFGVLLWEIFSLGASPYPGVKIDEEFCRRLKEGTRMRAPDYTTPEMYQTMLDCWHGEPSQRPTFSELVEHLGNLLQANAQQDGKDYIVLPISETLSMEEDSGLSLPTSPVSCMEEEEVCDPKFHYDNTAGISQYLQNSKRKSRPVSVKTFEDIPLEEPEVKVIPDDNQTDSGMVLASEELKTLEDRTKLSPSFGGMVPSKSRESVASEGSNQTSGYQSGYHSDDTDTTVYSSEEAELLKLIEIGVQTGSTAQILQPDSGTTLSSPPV
Also noted: method as in PMID 33721808, PMID 34023640. Particulars: lead compounds of previous work ref 63, 64; cited from earlier work.

The subject of another data set is caspase-9. Put plainly: Active caspase-9 level in HepG2 cells (Western blot). The note with it: 4.5 µM, 24 h. The data set is classed as cell-based. A general note: Immunoblotting shows a protein as a band on a membrane.
A short description of data set [4]: Cytotoxicity against primary rat hepatocytes (normal hepatic cells). The data set is classed as cell-based. The note with it: rat, primary rat hepatocytes. From the text:
(§1) It is of high importance for anticancer agents to have minimum side effects on normal cells. […].

In a further data set the test system is primary rat hepatocytes. The description is as above. In kind it is cell-based. Particulars: HepG2 vs primary rat hepatocytes.
From the text: as §1

Data set [5] relates to HepG2. In words: MTT anti-proliferative assay, HepG2. The note with it: Homo sapiens, read-out: Cytotoxicity on cancer cells IC50, HepG2. The data set is classed as cell-based. How it is done: (§2) In vitro cytotoxic activities of the synthesised compounds were evaluated against two different cancer cell lines; breast cancer (MCF-7) and hepatocellular carcinoma (HepG2) using standard MTT colorimetric assay as described by Mosmann[78]^,[79]. […].
(§3) The in vitro antiproliferative activities were assessed using the MTT assay protocol[78]^,[79]^,[95]. As shown in Supplementary Data.
A general note: Tetrazolium dyes change colour on reduction, which living cells bring about.

A further data set deals with BAX/Bcl-2 ratio. In words: BAX/Bcl-2 ratio in HepG2 cells (Western blot). The data set is classed as cell-based. How it is done:
(§4) In this study, BAX and Bcl-2 expression levels in the HepG2 cell line after the treatment with compound 27a were determined by quantitative Western blotting. […] Also, it decreased the Bcl-2 level by 2-fold less than the control cells. In addition, the BAX/Bcl-2 ratio was increased 5-fold in the treated cells compared to the control cell (Table 4 and Figure 6). Meanwhile, compound 27a increased BAX/Bcl-2 ratio, it could trigger apoptosis in the experienced cells[90]^,[91].

The next data set deals with caspase-3. Put plainly: Active caspase-3 level in HepG2 cells (Western blot). Particulars: 4.5 µM, 24 h. In kind it is cell-based.
The target in data set [6] is T1, human VEGFR-2. In words: In vitro VEGFR-2 enzyme inhibition assay (ELISA kit, HepG2 cell line). The data set is classed as biochemical. Particulars: human VEGFR-2 in HepG2 cell line. From the text:
The synthesised compounds were estimated for their in vitro inhibition on human VEGFR-2 in HepG2 cell line; using ELISA kit[96] as described in Supplementary Data.
(In general: ELISA stands for enzyme-linked immunosorbent assay.)

Data set [7] relates to HepG2 cells. In words: Flow cytometry cell cycle analysis. The data set is classed as cell-based. The note with it: 4.5 µM, 24 h. How it is done: The cell cycle parameters of the incubated cells were compared with untreated control cells (Table 2 and Figure 4).
Another data set deals with BAX. In words: BAX expression level in HepG2 cells (Western blot). In kind it is cell-based. How it is done: as §4
The test system of data set [8] is HepG2 cells. Put plainly: Annexin V and PI double staining apoptosis assay. The data set is classed as cell-based. The note with it: 4.5 µM, 24 h. The method, then:
As compound 27a produced a high accumulation of HepG2 cells at the G2/M phase, such compound was further investigated for its apoptotic effect using Annexin V and PI double staining assay. In such a procedure, HepG2 cells were treated with compound 27a at a concentration of 4.5 µM and incubated for 24 h.
Apoptosis analysis for compound 27a in HepG2 cells was carried out using Annexin V-FITC as shown in Supplementary Data[30]^,[86].

Data set [9] deals with MCF-7. In words: MTT anti-proliferative assay, MCF-7. The data set is classed as cell-based. Particulars: Homo sapiens, MCF7; MCF-7, MTT assay; read-out: Cytotoxicity on cancer cells IC50, MCF-7. The method, then: as §2, §3
In a further data set the test system is Bcl-2. In words: Bcl-2 expression level in HepG2 cells (Western blot). In kind it is cell-based. How it is done:
as §4

`O=C(Cn1c(=O)c2nncn2c2ccccc21)Nc1ccc(C(=O)Nc2ccc(Cl)cc2)cc1` [Compound 7]: the values for the IC50 with HepG2 [1] and in the data set on MCF-7 [2] were 4.1 µM and 7.2 µM, respectively.

Turning to `COc1ccc(NC(=O)c2ccc(NC(=O)CSc3nnc4c5nncn5c5ccccc5n34)cc2)cc1` [Compound 8], the results for the IC50 on human VEGFR-2 [3], in the data set with HepG2 [1] and in the data set with MCF-7 [2] were 0.0032 µM, 3.3 µM and 4.4 µM, respectively.

As to `Cc1nc2ccccc2n(CC(=O)Nc2ccc(C(=O)NC(C)(C)C)cc2)c1=O` [Compound 27a, N-(tert-butyl)-4-(2-(3-methyl-2-oxoquinoxalin-1(2H)-yl)acetamido)benzamide], the “Increase in the level of caspase-9 compared to control cells” value in the data set with caspase-9 turned out to be 3.43 fold. In the data set on caspase-9 (control = 1.00), the “Protein expression (normalised to β-actin), Caspases-9” value is on record as 3.43 ± 0.49. This compound displayed an IC50 in data set [4] of 19.9 µM. Further, the “Cytotoxic activity against cancer HepG2 cell line more than against normal hepatic cells” value with primary rat hepatocytes amounted to 4.5 fold. Besides, the IC50 in the data set with HepG2 [5] is 4.5 µM. Moreover, the “Increase of BAX/Bcl-2 ratio compared to control cells” value in the data set on BAX/Bcl-2 ratio was determined as 5 fold. Besides, the “Protein expression (normalised to β-actin), BAX/Bcl-2 ratio” value with BAX/Bcl-2 ratio (24 h, control = 1.00) came to 5.03 ± 0.36. In addition, in the data set with caspase-3, the “Increase in the level of caspase-3 compared to control cells” value is listed as 2.5 fold. For the same compound, the “Protein expression (normalised to β-actin), Caspases-3” value in the data set with caspase-3 (control = 1.00) came out at 2.51 ± 0.27. For the same compound, the IC50 at human VEGFR-2 [6] is 0.0032 µM. Moreover, in the data set with HepG2 cells [7], the “Accumulation of cells at G2/M compared to control cells” value was 3.5 fold; the “Cell cycle distribution %G1” value was 37.66% and 37.66 ± 2.16 %; the “Cell cycle distribution %G2/M” value is 34.14% and 34.14 ± 1.22 %; the “Cell cycle distribution %S” value was 26.96% and 26.96 ± 1.55%. Also, the “Cell cycle distribution %Sub-G1” value in the data set on HepG2 cells [7] is 1.24% and 1.24 ± 0.17%. The “Increase in the BAX level compared to control cells” value with BAX came out at 2.6 fold. Also, the “Protein expression (normalised to β-actin), BAX” value with BAX (24 h, control = 1.00) came out at 2.60 ± 0.20. Besides, in the data set with HepG2 cells [8], the “Apoptosis, Early (right bottom)” value is 40.47% and 40.47 ± 2.55 %; the “Apoptosis, Late (right top)” value was 0.35% and 0.35 ± 0.06%; the “Increase of apoptosis compared to untreated cells” value was “about five times”; the “Necrosis (left top)” value turned out to be 0.20 ± 0.04. The “Viable (left bottom)” value in the data set with HepG2 cells [8] was 58.98 ± 2.64. Also, in the data set on MCF-7 [9], the IC50 came to 7.7 µM. In the data set with Bcl-2, the “Decrease in the Bcl-2 level compared to control cells” value is recorded as 2 fold. In addition, the “Protein expression (normalised to β-actin), Bcl-2” value with Bcl-2 (24 h, control = 1.00) stood at 0.52 ± 0.02.

The values are drawn from PMC8344243, “Design, synthesis, docking, ADMET studies, and anticancer evaluation of new 3-methylquinoxaline derivatives as VEGFR-2 inhibitors and apoptosis inducers” (Journal of Enzyme Inhibition and Medicinal Chemistry, 2021).
